In ChEMBL document CHEMBL5726195, “Pharmaceutically active pyrazine derivatives” (2017) one finds IC50 data, which are given here for two compounds.

For this assay, the target named is T1, Serine/threonine-protein kinase Chk1 (Homo sapiens, UniProt O14757).
T1 sequence (O14757 whole entry): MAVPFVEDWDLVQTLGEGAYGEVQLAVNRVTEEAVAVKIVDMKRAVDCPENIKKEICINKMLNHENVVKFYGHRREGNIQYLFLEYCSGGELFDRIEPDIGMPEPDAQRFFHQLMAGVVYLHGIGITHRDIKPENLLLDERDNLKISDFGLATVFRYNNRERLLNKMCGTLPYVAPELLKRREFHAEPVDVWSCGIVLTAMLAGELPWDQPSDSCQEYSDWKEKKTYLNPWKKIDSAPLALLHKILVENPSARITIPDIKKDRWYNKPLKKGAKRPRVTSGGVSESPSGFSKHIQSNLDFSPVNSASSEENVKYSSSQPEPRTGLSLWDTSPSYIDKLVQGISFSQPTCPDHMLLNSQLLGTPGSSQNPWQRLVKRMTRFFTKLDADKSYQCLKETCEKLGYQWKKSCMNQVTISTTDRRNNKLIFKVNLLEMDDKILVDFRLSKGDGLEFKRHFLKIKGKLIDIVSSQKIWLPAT
Description: Kinase Inhibition Asssay: Reaction Buffer:Base Reaction buffer: 20 mM Hepes (pH 7.5), 10 mM MgCl2, 1 mM EGTA, 0.02% Brij35, 0.02 mg/ml BSA, 0.1 mM Na3VO4, 2 mM DTT, 1% DMSORequired cofactors are added individually to each kinase reactionReaction Procedure:(i) Prepare indicated substrate in freshly prepared Base Reaction Buffer(ii) Deliver any required cofactors to the substrate solution above(iii) Deliver indicated kinase into the substrate solution and gently mix(iv) Deliver compounds in DMSO into the kinase reaction mixture(v) Deliver 33P-ATP (specific activity 0.01 μCi/μl final) into the reaction mixture to initiate the reaction.(vi) Incubate kinase reaction for 120 minutes at room temperature(vii) Reactions are spotted onto P81 ion exchange paper (Whatman #3698-915)(viii) Wash filters extensively in 0.1% phosphoric acid.(ix) Dry filters and measure counts in scintillation counterKinase Information:CHK-1 Genbank Accession # AF016582Recombinant full length construct, N-terminal GST tagged, purified from insect cells.No special measures were taken to activate this kinase.Final concentration in assay=0.5 nMSubstrate: CHKtidePeptide sequence: [[…]]Final concentration in assay=20 μM.

SMILES strings stand for the structures.

For `COc1cc(CCNC[C@@H]2CCCNC2)c(Cl)cc1NC(=O)Nc1cnc(C#N)cn1`, the IC50 – broadly, the concentration that gives 50% inhibition – is 0.1 nM.
Under `COc1cc(CCNC[C@H]2CCCNC2)c(Cl)cc1NC(=O)Nc1cnc(C#N)cn1` stands 0.06 nM.
